From patent US9505745B2, “Enhancer of zeste homolog 2 inhibitors” (GlaxoSmithKline Intellectual Property (No.2) Limited, priority 2013, dated 2016)
Where a name gives a salt, the structure may show the parent alone.

What was measured:
[1] = molecular target: T1, EZH2 within the PRC2 complex (Homo sapiens (Human), UniProt Q15910); test: EZH2 methyltransferase SPA, mononucleosome substrate (Assay Protocol 1); assay type: biochemical; conditions: HeLa mononucleosome substrate, 3H-SAM, ≦10 nM approaches limit of detection
T1 sequence (Q15910 whole entry): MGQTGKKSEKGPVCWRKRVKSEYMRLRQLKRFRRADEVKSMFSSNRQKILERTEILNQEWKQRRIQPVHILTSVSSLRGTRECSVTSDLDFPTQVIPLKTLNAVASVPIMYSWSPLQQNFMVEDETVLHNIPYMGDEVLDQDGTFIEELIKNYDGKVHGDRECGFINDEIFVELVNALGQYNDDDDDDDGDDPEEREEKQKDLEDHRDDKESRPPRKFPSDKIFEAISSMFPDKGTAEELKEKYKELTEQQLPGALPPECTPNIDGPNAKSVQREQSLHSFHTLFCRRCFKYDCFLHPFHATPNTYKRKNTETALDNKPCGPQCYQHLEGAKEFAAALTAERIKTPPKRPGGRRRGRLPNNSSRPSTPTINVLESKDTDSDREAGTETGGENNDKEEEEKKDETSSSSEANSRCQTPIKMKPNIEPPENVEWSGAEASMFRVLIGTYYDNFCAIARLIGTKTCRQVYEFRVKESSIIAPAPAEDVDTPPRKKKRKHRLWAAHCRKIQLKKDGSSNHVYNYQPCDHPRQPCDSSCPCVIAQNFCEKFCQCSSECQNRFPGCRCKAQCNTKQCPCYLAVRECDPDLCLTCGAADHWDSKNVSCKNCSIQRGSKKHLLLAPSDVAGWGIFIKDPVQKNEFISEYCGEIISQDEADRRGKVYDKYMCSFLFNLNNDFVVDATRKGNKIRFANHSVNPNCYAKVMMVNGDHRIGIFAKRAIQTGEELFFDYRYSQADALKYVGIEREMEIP
T1 sequence (O75530 whole entry partner): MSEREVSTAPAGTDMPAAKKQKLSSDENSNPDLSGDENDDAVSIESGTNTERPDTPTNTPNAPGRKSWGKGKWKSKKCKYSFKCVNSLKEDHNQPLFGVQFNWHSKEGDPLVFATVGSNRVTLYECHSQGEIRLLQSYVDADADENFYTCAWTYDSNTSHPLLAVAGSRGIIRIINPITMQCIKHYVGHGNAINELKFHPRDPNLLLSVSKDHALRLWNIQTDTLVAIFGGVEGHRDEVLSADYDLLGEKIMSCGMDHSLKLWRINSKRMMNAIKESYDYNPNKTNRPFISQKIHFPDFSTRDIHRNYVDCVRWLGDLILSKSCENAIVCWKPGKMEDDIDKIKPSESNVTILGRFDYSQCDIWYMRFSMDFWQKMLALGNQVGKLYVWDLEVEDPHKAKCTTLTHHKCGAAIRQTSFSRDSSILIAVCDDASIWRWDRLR
T1 sequence (Q15022 whole entry partner): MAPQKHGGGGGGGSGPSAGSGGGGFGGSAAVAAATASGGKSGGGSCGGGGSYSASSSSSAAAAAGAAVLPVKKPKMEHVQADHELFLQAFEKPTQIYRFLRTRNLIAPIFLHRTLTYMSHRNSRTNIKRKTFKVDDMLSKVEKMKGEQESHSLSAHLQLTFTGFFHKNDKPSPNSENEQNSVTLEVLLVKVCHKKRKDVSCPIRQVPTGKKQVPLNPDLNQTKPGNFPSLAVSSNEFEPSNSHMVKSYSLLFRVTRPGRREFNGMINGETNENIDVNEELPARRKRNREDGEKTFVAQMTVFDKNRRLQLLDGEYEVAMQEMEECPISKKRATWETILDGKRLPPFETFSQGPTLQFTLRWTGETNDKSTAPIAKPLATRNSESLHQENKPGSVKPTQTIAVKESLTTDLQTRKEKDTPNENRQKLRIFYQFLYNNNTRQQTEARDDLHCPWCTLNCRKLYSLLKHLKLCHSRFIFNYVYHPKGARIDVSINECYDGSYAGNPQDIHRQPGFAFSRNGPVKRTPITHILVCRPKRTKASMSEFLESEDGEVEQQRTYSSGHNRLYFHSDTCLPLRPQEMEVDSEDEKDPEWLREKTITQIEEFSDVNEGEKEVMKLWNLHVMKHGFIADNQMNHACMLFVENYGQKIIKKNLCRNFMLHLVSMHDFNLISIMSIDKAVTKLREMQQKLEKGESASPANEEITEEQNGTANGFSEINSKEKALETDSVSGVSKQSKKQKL
T1 sequence (Q09028 whole entry partner): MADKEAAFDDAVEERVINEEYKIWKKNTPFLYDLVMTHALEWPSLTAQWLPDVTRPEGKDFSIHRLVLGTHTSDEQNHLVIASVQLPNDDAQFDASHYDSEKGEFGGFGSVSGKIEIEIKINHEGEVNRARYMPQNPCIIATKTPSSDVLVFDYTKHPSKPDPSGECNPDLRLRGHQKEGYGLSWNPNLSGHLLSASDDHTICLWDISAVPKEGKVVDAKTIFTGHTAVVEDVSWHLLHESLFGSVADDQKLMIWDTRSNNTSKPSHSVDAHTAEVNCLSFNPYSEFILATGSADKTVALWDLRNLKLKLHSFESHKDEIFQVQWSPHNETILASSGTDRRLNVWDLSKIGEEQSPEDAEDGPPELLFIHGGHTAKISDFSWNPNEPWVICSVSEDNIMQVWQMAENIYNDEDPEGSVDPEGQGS
T1 sequence (Q6ZN18 whole entry partner): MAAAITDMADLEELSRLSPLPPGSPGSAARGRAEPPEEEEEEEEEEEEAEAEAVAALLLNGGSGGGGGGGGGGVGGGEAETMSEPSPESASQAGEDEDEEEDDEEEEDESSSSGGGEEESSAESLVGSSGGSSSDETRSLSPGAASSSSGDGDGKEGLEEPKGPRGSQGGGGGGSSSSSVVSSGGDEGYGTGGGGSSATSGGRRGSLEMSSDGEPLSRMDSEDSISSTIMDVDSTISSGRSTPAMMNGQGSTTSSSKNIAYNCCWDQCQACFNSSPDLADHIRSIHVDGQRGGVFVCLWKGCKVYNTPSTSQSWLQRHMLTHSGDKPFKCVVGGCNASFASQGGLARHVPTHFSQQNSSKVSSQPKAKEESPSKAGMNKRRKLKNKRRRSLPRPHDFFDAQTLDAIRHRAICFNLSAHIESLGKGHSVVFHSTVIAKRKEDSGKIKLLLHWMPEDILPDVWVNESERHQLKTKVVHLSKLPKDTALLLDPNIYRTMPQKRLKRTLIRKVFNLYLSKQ
Description: Compounds contained herein were evaluated for their ability to inhibit the methyltransferase activity of EZH2 within the PRC2 complex. Human PRC2 complex was prepared by co-expressing each of the 5 member proteins (FLAG-EZH2, EED, SUZ12, RbAp48, AEBP2) in Sf9 cells followed by co-purification. Enzyme activity was measured in a scintillation proximity assay (SPA) where a tritiated methyl group is transferred from 3H-SAM to a lysine residue on Histone H3 of a mononucleosome, purified from HeLa cells. Mononucleosomes were captured on SPA beads and the resulting signal is read on a ViewLux plate reader.
Part A. Compound Preparation
• 1. Prepare 10 mM stock of compounds from solid in 100% DMSO. • 2. Set up an 11-point serial dilution (1:3 dilution, top concentration 10 mM) in 100% DMSO for each test compound in a 384 well plate leaving columns 6 and 18 for DMSO controls. • 3. Dispense 100 nL of compound from the dilution plate into reaction plates (Grenier Bio-One, 384-well, Cat#784075). Part B. Reagent Preparation Prepare the following solutions: • 1. 50 mM Tris-HCl, pH 8: Per 1 L of base buffer, combine 1 M Tris-HCl, pH 8 (50 mL) and distilled water (950 mL). • 2. 1× Assay Buffer: Per 10 mL of 1× Assay Buffer, combine 50 mM Tris-HCl, pH 8 (9958 uL), 1 M MgCl2 (20 uL), 2 M DTT (20 uL), and 10% Tween-20 (2 uL) to provide a final concentration of 50 mM Tris-HCl, pH 8, 2 mM MgCl2, 4 mM DTT, 0.002% Tween-20. • 3. 2× Enzyme Solution: Per 10 mL of 2× Enzyme Solution, combine 1× Assay Buffer and PRC2 complex to provide a final enzyme concentration of 10 nM. • 4. SPA Bead Suspension: Per 1 mL of SPA Bead Suspension, combine PS-PEI coated LEADSeeker beads (40 mg) and H2O (1 mL) to provide a final concentration of 40 mg/mL. • 5. 2× Substrate Solution: Per 10 mL of 2× Substrate Solution, combine 1× Assay Buffer (9728.55 uL), 800 ug/mL mononucleosomes (125 uL), 1 mM cold SAM (4 uL), and 7.02 uM 3H-SAM (142.45 uL; 0.55 mCi/mL) to provide a final concentration of 5 ug/mL nucleosomes, 0.2 uM cold SAM, and 0.05 uM 3H-SAM. • 6. 2.67× Quench/Bead Mixture: Per 10 mL of 2.67× Quench/Bead Mixture, combine ddH2O (9358 uL), 10 mM cold SAM (267 uL), 40 mg/mL Bead Suspension (375 uL) to provide a final concentration of 100 uM cold SAM and 0.5 mg/mL SPA beads. Part C. Assay Reaction in 384-well Grenier Bio-One Plates Compound Addition • 1. Dispense 100 nL/well of 100× Compound to test wells (as noted above). • 2. Dispense 100 nL/well of 100% DMSO to columns 6 & 18 for high and low controls, respectively. Assay • 1. Dispense 5 uL/well of 1× Assay Buffer to column 18 (low control reactions). • 2. Dispense 5 uL/well of 2× Enzyme Solution to columns 1-17, 19-24. • 3. Spin assay plates for ˜1 min at 500 rpm. • 4. Stack the assay plates, covering the top plate. • 5. Incubate the compound/DMSO with the enzyme for 30 min at room temperature. • 6. Dispense 5 uL/well of 2× Substrate Solution to columns 1-24. • 7. Spin assay plates for ˜1 min at 500 rpm. • 8. Stack the assay plates, covering the top plate. • 9. Incubate the assay plates at room temperature for 1 hour. Quench/Bead Addition • 1. Dispense 5 uL/well of the 3× Quench/Bead Mixture to columns 1-24. • 2. Seal the top of each assay plate with adhesive TopSeal. • 3. Spin assay plates for ˜1 min at 500 rpm. • 4. Equilibrate the plates for >20 min. Read plates • 1. Read the assay plates on the Viewlux Plate Reader utilizing the 613 nm emission filter with a 300 s read time.
Reagent addition can be done manually or with automated liquid handler. • The final DMSO concentration in this assay is 1%. • The positive control is in column 6; negative control is in column 18. • Final starting concentration of compounds is 100 µM. Results
Percent inhibition was calculated relative to the DMSO control for each compound concentration and the resulting values were fit using standard IC50 fitting parameters within the ABASE data fitting software package.

[2] = molecular target: T1, EZH2 within the PRC2 complex; test: EZH2 methyltransferase SPA, biotinylated histone H3K27 peptide substrate (Assay Protocol 2); assay type: biochemical; conditions: 3H-SAM, ≦10 nM approaches limit of detection
How it was run: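 Five-member human PRC2 complex (FLAG-EZH2, EED, SUZ12, RbAp48, AEBP2) co-expressed in Sf9 cells, 1 nM final, with 10 uM biotinylated H3K27 peptide, 0.15 uM 3H-SAM plus 2.85 uM cold SAM, pH 8, 60 min at rt. Quenched with cold SAM; SPA signal; IC50 from 11-point curves vs DMSO.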

IC50 [1]	IC50 [2]	Structure (SMILES)
≤ 10 nM	13 nM	CCN(c1scc(C(=O)NCc2c(OC)cc(C)[nH]c2=O)c1C)[C@H]1CC[C@H](N(C)C)CC1 [Example 18, 5-(((trans)-4-(Dimethylamino)cyclohexyl)(ethyl)amino)-N-((4-methoxy-6-methyl-2-oxo-1,2-dihydropyridin-3-yl)methyl)-4-methylthiophene-3-carboxamide]
16 nM	16 nM	CCN(c1scc(C(=O)NCc2c(C)cc(C)[nH]c2=O)c1C)C1CCOCC1 [Example 6, N-((4,6-dimethyl-2-oxo-1,2-dihydropyridin-3-yl)methyl)-5-(ethyl(tetrahydro-2H-pyran-4-yl)amino)-4-methylthiophene-3-carboxamide]
316 nM	2000 nM	Cc1cc(C)c(CNC(=O)c2csc(C(C)N3CCC(N(C)C)CC3)c2)c(=O)[nH]1 (centres unmarked) [Example 13, N-((4,6-dimethyl-2-oxo-1,2-dihydropyridin-3-yl)methyl)-5-(1-(4-(dimethylamino)piperidin-1-yl)ethyl)thiophene-3-carboxamide]
32 nM	50 nM	CCN(c1csc(C(=O)NCc2c(C)cc(C)[nH]c2=O)c1C)[C@H]1CC[C@@H](N(C)C)CC1 [Example 5, N-((4,6-dimethyl-2-oxo-1,2-dihydropyridin-3-yl)methyl)-4-(((cis)-4-(dimethylamino)cyclohexyl)(ethyl)amino)-3-methylthiophene-2-carboxamide]
16 nM	20 nM	CCN(c1scc(C(=O)NCc2c(C)cc(C)[nH]c2=O)c1C)C1CCN(C(=O)OC(C)(C)C)CC1 [Example 11, tert-Butyl 4-((4-(((4,6-dimethyl-2-oxo-1,2-dihydropyridin-3-yl)methyl)carbamoyl)-3-methylthiophen-2-yl)(ethyl)amino)piperidine-1-carboxylate]
100 nM	630 nM	Cc1cc(C)c(CNC(=O)c2csc(N3CCCC3C)c2C)c(=O)[nH]1 (centres unmarked) [Example 25, N-((4,6-Dimethyl-2-oxo-1,2-dihydropyridin-3-yl)methyl)-4-methyl-5-(2-methylpyrrolidin-1-yl)thiophene-3-carboxamide]
398 nM	6310 nM	Cc1cc(C)c(CNC(=O)c2csc(C3CCCN3C3CCOCC3)c2C)c(=O)[nH]1 (centres unmarked) [Example 22, N-((4,6-Dimethyl-2-oxo-1,2-dihydropyridin-3-yl)methyl)-4-methyl-5-(1-(tetrahydro-2H-pyran-4-yl)pyrrolidin-2-yl)thiophene-3-carboxamide]
100 nM	316 nM	Cc1cc(C)c(CNC(=O)c2csc(C(O)C3CCNCC3)c2C)c(=O)[nH]1 (centres unmarked) [Example 21, N-((4,6-dimethyl-2-oxo-1,2-dihydropyridin-3-yl)methyl)-5-(hydroxy(piperidin-4-yl)methyl)-4-methylthiophene-3-carboxamide]
630 nM	2000 nM	CCN(c1c(C)c(C(=O)NCc2c(C)cc(C)[nH]c2=O)nn1C)C1CCOCC1 [Example 14, N-[(4,6-dimethyl-2-oxo-1,2-dihydro-3-pyridinyl)methyl]-5-[ethyl(tetrahydro-2H-pyran-4-yl)amino]-1,4-dimethyl-1H-pyrazole-3-carboxamide]
630 nM	5010 nM	Cc1cc(C)c(CNC(=O)c2csc(C(C)N3CCOCC3)c2C)c(=O)[nH]1 (centres unmarked) [Example 26, N-((4,6-dimethyl-2-oxo-1,2-dihydropyridin-3-yl)methyl)-4-methyl-5-(1-morpholinoethyl)thiophene-3-carboxamide]
79 nM	630 nM	CCN(c1scc(C(=O)NCc2c(C(F)(F)F)cc(C)[nH]c2=O)c1C)C1CCOCC1 [Example 15, 5-(Ethyl(tetrahydro-2H-pyran-4-yl)amino)-4-methyl-N-((6-methyl-2-oxo-4-(trifluoromethyl)-1,2-dihydropyridin-3-yl)methyl)thiophene-3-carboxamide]
3160 nM	25100 nM	Cc1cc(C)c(CNC(=O)c2scc(OC(C)C)c2C)c(=O)[nH]1 [Example 1, N-((4,6-dimethyl-2-oxo-1,2-dihydropyridin-3-yl)methyl)-4-isopropoxy-3-methylthiophene-2-carboxamide]
≤ 10 nM	25 nM	CCCc1cc(C)[nH]c(=O)c1CNC(=O)c1csc(N(CC)[C@H]2CC[C@H](N(C)C)CC2)c1C [Example 16, 5-(((trans)-4-(Dimethylamino)cyclohexyl)(ethyl)amino)-4-methyl-N-((6-methyl-2-oxo-4-propyl-1,2-dihydropyridin-3-yl)methyl)thiophene-3-carboxamide]
39800 nM	≥ 100000 nM	CCN(c1ccc(C(=O)NCc2c(C)cc(C)[nH]c2=O)s1)C1CCOCC1 [Example 30, N-((4,6-Dimethyl-2-oxo-1,2-dihydropyridin-3-yl)methyl)-5-(ethyl(tetrahydro-2H-pyran-4-yl)amino)thiophene-2-carboxamide]
≤ 10 nM	20 nM	CCN(c1scc(C(=O)NCc2c(C)cc(C)[nH]c2=O)c1C)[C@H]1CC[C@@H](N(C)C)CC1 [Example 7, N-((4,6-dimethyl-2-oxo-1,2-dihydropyridin-3-yl)methyl)-5-(((cis)-4-(dimethylamino)cyclohexyl)(ethyl)amino)-4-methylthiophene-3-carboxamide]
501 nM	3980 nM	Cc1cc(C)c(CNC(=O)c2csc(-c3cnn(C4CCNCC4)c3)c2C)c(=O)[nH]1 [Example 23, N-((4,6-dimethyl-2-oxo-1,2-dihydropyridin-3-yl)methyl)-4-methyl-5-(1-(piperidin-4-yl)-1H-pyrazol-4-yl)thiophene-3-carboxamide]
31 nM	63 nM	Cc1cc(C)c(CNC(=O)c2csc(C(C)N3CCC(N(C)C)CC3)c2C)c(=O)[nH]1 (centres unmarked) [Example 27, N-((4,6-dimethyl-2-oxo-1,2-dihydropyridin-3-yl)methyl)-5-(1-(4-(dimethylamino)piperidin-1-yl)ethyl)-4-methylthiophene-3-carboxamide hydrochloride]
15800 nM	≥ 100000 nM	Cc1cc(C)c(CNC(=O)c2cnn(CC3CCOCC3)c2C)c(=O)[nH]1 [Example 10, N-((4,6-dimethyl-2-oxo-1,2-dihydropyridin-3-yl)methyl)-5-methyl-1-((tetrahydro-2H-pyran-4-yl)methyl)-1H-pyrazole-4-carboxamide]

Structure (SMILES)	IC50 [1]	IC50 [2]
Cc1cc(C)c(CNC(=O)c2cnn(-c3ccccc3)c2C)c(=O)[nH]1 [Example 9, N-((4,6-dimethyl-2-oxo-1,2-dihydropyridin-3-yl)methyl)-5-methyl-1-phenyl-1H-pyrazole-4-carboxamide]	20000 nM	63100 nM
